Where two headings read alike, the source gives them in different places.
Columns and labels:
[1] = cited from earlier work; for half-life: pharmacokinetic / plasma half-life; for time of peak plasma concentration after oral administration: oral dosing; for lead time to peak plasma levels: list follows the words 'intramuscular routes will generally have shorter lead times to peak plasma levels'
migraine = assay: Comparison of MT 400, triptan alone, NSAID alone and placebo in migraine patients; type: in vivo, human; settings: for % with nausea / % with phonophobia / % with photophobia / Number with nausea / Number with phonophobia / Number with photophobia: at 2 hours; for Number with nausea / Number with phonophobia / Number with photophobia / Sustained Response (Sustained Pain Response), number of subjects / Sustained Pain Free responders, number of subjects: N = 250 / 229 / 247; for patients with improvement from moderate or severe pain at baseline to mild or no pain: at two hours; for Sustained Response (Sustained Pain Response), percentage of subjects: initial pain response without return of pain for 24 hours after dosing; for Sustained Response (Sustained Pain Response), number of subjects: initial pain response without return of pain for 24 hours; for Sustained Pain Free responders, number of subjects: pain score 0 at 2 hours and from 2 to 24 hours without rescue; for therapeutic gain, Sustained Pain Free / therapeutic gain over placebo, sustained response / therapeutic gain over placebo, pain response: response rate minus placebo response; for therapeutic gain over placebo, sustained response: 24 hours; for therapeutic gain over placebo, pain response: pain response at two hours
Description: In these experiments, a comparison was made between: patients administered triptan alone; patients administered NSAID alone; patients administered a combination of triptan and NSAID (“MT400”); and, in some cases, patients administered a placebo.
Sustained response was evaluated based upon the number of patients that experience an initial pain response without a return of pain for the 24 hours after dosing.
The most desirable outcome for the treatment of migraine is that the pain be eliminated quickly and not return. This outcome measure is termed Sustained Pain Free. Responders are defined as patients having a pain score of 0 at 2 hours and nothing more than 0 from 2 to 24 hours post dose without the need for rescue.
As migraine is a pathological complex characterized by unilateral headache, often accompanied by associated symptoms of nausea, photophobia and phonophobia, efficacy against these other parameters is important in evaluating the efficacy of a drug candidate.

migraine attack = tested on: migraine attack
Description: Headache relief at two hours was determined in a manner identical to that described above, but the relapse and sustained response rates were calculated based solely on a return of moderate or severe headache pain (i.e., no “rescue medication” protocol was used as a separate indicator of relapse).

migraine attacks = assay: Open-label, randomized out-patient study, 16 migraine patients with high relapse rate, two successive migraine attacks; type: in vivo, human
Description: Headache pain was assessed by the patients on a 4-point scale (no pain, mild pain, moderate pain, or severe pain). Each patient was treated for two migraine attacks of moderate or severe intensity at baseline and pain scores were recorded every 30 minutes for the first two hours following dosing and at 3, 4, 6, 12 and 24 hours post-dose. “Relapse” was defined to occur in those patients who responded with an adequate reduction in headache pain (moderate or severe at baseline, reduced to no pain or mild pain) at 2 hours after administration and, in whom, over the next 22 hours either: (a) headache pain returned to moderate or severe intensity; or (b) “rescue medication” was required to treat the recurrent headache pain.

COX-2 = molecular target: T1, COX-2 (Homo sapiens, UniProt P35354); settings: reported (Feldman 2000; Sengupta 1999); cited from earlier work
T1 sequence (P35354 18-604): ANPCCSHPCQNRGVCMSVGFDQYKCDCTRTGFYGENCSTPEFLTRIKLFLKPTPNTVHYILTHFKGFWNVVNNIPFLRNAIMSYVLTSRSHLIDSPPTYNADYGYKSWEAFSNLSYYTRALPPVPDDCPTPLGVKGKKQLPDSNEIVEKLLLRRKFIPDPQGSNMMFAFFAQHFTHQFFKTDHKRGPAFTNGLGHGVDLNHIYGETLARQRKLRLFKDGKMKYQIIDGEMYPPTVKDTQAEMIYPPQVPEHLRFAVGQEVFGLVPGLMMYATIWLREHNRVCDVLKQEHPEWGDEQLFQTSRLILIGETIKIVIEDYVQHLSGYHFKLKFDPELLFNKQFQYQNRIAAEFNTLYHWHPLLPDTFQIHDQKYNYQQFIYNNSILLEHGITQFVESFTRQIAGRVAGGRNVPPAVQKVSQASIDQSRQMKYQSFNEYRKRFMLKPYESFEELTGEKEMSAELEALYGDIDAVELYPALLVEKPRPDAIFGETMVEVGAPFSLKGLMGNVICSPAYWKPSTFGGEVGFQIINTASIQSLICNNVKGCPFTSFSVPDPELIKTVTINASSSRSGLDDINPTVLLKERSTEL

O=C(c1ccccc1)c1ccc2n1CCC2C(=O)O (stereo not shown) [ketorolac]
half-life [1]: 8 to 9 h

Cc1ccc(-c2cc(C(F)(F)F)nn2-c2ccc(S(N)(=O)=O)cc2)cc1 [Celecoxib, celecoxib]
time of peak plasma concentration after oral administration [1]: approximately 3 hours
half-life [1]: approximately 11 hours

O=C(O)CCc1nc(-c2ccccc2)c(-c2ccccc2)o1 [oxaprozin]
half-life [1]: 42 to 50 h
half-life ([1]; listed as Oxaprozin): 42 to 50 h

COc1ccc2cc([C@H](C)C(=O)O)ccc2c1 [naproxen]
% with nausea (migraine): (31.2%)
% with phonophobia (migraine): (47.8%)
% with photophobia (migraine): (57.5%)
Number with nausea (migraine): 77
Number with phonophobia (migraine): 118
Number with photophobia (migraine): 142
patients with improvement from moderate or severe pain at baseline to mild or no pain (migraine): 46%
Sustained Response (Sustained Pain Response), percentage of subjects (migraine): 24.7%
Sustained Response (Sustained Pain Response), percentage of subjects (migraine; listed as Naproxen): (24.7%)
Sustained Response (Sustained Pain Response), number of subjects (migraine): 61
Sustained Pain Free responders, number of subjects (migraine): 29
Sustained Pain Free responders, percentage of subjects (migraine; pain score 0 at 2 hours and nothing more than 0 from 2 to 24 hours post dose without rescue): (11.7%)
therapeutic gain, Sustained Pain Free (migraine): 6.7%
therapeutic gain over placebo, sustained response (migraine): 8%
therapeutic gain over placebo, pain response (migraine): 19%
sustained response rate (migraine attack; responds initially and no relapse in twenty-four hours): 46%

Cc1ccc(Cl)c(Nc2ccccc2C(=O)O)c1Cl [meclofenamate, Meclofenamate sodium]
lead time to peak plasma levels [1]: 0.5 to 1 h

CC(C(=O)O)c1ccc(-c2ccccc2)c(F)c1 (stereo not shown) [flurbiprofen]
half-life [1]: about 6 hours

CN1C(C(=O)Nc2ccccn2)=C(O)c2sc(Cl)cc2S1(=O)=O [lornoxicam]
time of peak plasma concentration after oral administration [1]: approximately two
half-life [1]: about 4 hours
half-life ([1]; listed as Lornoxicam): approximately 4 hours

CNS(=O)(=O)Cc1ccc2[nH]cc(CCN(C)C)c2c1 [sumatriptan]
peak serum concentration ([1]; oral doses of about 1-300 mg): 1 to 300 ng/mL
peak serum concentration ([1]; subcutaneous injections of about 1 to 8 mg): 1 to 150 ng/mL
24 hour sustained response (migraine attacks; % of 16 patients, relapse criteria including rescue medication): 44%
number of patients with 24 hour sustained response (migraine attacks; of 16 patients, relapse criteria including rescue medication): seven
relapse rate (migraine attacks; re-analysed, based solely on return of moderate or severe headache pain): 40%
relapse rate of responding patients (migraine attacks; relapse = return of moderate or severe pain or rescue medication within 22 hours after the 2 hour response): 46%
sustained response rate (migraine attacks; responds initially and no relapse in twenty-four hours, criteria of the second study): 56%

CNS(=O)(=O)Cc1ccc2[nH]cc(CCN(C)C)c2c1 [Imitrex, sumatriptan succinate]
% with nausea (migraine): (31.9%)
% with phonophobia (migraine): (44.5%)
% with photophobia (migraine): (50.2%)
Number with nausea (migraine): 73
Number with phonophobia (migraine): 102
Number with photophobia (migraine): 115
patients with improvement from moderate or severe pain at baseline to mild or no pain (migraine): 49%
Sustained Response (Sustained Pain Response), number of subjects (migraine): 66
Sustained Pain Free responders, number of subjects (migraine): 25
therapeutic gain, Sustained Pain Free (migraine): 5.9%
therapeutic gain over placebo, sustained response (migraine): 12%
therapeutic gain over placebo, pain response (migraine): 22%

Cc1cccc(Nc2ccccc2C(=O)O)c1C [mefenamic acid]
half-life [1]: up to 4 hours
specificity for COX-2 (COX-2): highly specific for COX-2

CN1C(C(=O)Nc2ccccn2)=C(O)c2ccccc2S1(=O)=O [piroxicam]
time of dosing until steady state plasma concentrations are reached ([1]; in vivo): 7 to 12 days

COc1ccc2cc([C@H](C)C(=O)O)ccc2c1 [naproxen sodium]
relapse rate (migraine attack; 500 mg naproxen sodium alone, based solely on return of moderate or severe headache pain): 26%

CS(=O)(=O)c1ccc(C2=C(c3ccccc3)C(=O)OC2)cc1 [rofecoxib]
time of peak plasma concentration after oral administration [1]: 2 to 3 h
half-life [1]: about 17 hours

COc1ccc2cc(CCC(C)=O)ccc2c1 [nabumetone]
lead time to peak plasma levels [1]: 2.5 to 4 h
half-life [1]: 22 to 30 h

Cc1onc(-c2ccccc2)c1-c1ccc(S(N)(=O)=O)cc1 [valdecoxib]
time of peak plasma concentration after oral administration [1]: 2 to 3 h
half-life [1]: 8 to 11 h

COc1ccc2c(c1)c(CC(=O)O)c(C)n2C(=O)c1ccc(Cl)cc1 [indomethacin]
lead time to peak plasma levels [1]: 1 to 4 h

CCc1cccc2c3c([nH]c12)C(CC)(CC(=O)O)OCC3 (stereo not shown) [etodolac]
half-life [1]: about 7 hours
specificity for COX-2 (COX-2): highly specific for COX-2
